Each structure is given as a SMILES string.

Common to all, as to assay type: in vivo
For assay [1], the system named is Echinochloa crus-galli (ECHCG). As to the kind of experiment: Pre-emergence herbicidal activity, ECHCG. Particulars: 1000 g/ha, sprayed pre-emergence, evaluated after 13 days, damage score 0-5. As for the experimental part:
(§1) Seeds of a variety of test species were sown in standard soil in pots: Triticum aestivium (TRZAW), Avena fatua (AVEFA), Alopecurus myosuroides (ALOMY), Echinochloa crus-galli (ECHCG), Lolium perenne (LOLPE), and Setaria faberi (SETFA). After cultivation for one day (pre-emergence) under controlled conditions in a glasshouse (at 24/16° C., day/night; 14 hours light; 65% humidity), the plants were sprayed with an aqueous spray solution derived from the formulation of the technical active ingredient in acetone/water (50:50) solution containing 0.5% Tween 20 (polyoxyethelyene sorbitan monolaurate, CAS RN 9005-64-5). The test plants were then grown in a glasshouse under controlled conditions (at 24/16° C., day/night; 14 hours light; 65% humidity) and watered twice daily. After 13 days, the test was evaluated (5=total damage to plant; 0=no damage to plant).

Assay [2] has as its system Alopecurus myosuroides (ALOMY). As to the kind of experiment: Post-emergence herbicidal activity, ALOMY. To be noted: 1000 g/ha, sprayed post-emergence (8 days cultivation), evaluated after 13 days, damage score 0-5. As for the experimental part: (§2) Seeds of a variety of test species were sown in standard soil in pots: Triticum aestivium (TRZAW), Avena fatua (AVEFA), Alopecurus myosuroides (ALOMY), Echinochloa crus-galli (ECHCG), Lolium perenne (LOLPE), and Setaria faberi (SETFA). After 8 days cultivation (post-emergence) under controlled conditions in a glasshouse (at 24/16° C., day/night; 14 hours light; 65% humidity), the plants were sprayed with an aqueous spray solution derived from the formulation of the technical active ingredient in acetone/water (50:50) solution containing 0.5% Tween 20 (polyoxyethelyene sorbitan monolaurate, CAS RN 9005-64-5). The test plants were then grown in a glasshouse under controlled conditions (at 24/16° C., day/night; 14 hours light; 65% humidity) and watered twice daily. After 13 days, the test was evaluated (5=total damage to plant; 0=no damage to plant).

In assay [3] the test system is Setaria faberi (SETFA). As to the kind of experiment: Post-emergence herbicidal activity, SETFA. Further details: key: 5=total damage to plant; 0=no damage to plant. Particulars: 1000 g/ha, sprayed post-emergence (8 days cultivation), evaluated after 13 days, damage score 0-5. As for the experimental part:
as §2

Assay [4] concerns Echinochloa crus-galli (ECHCG). As to the kind of experiment: Post-emergence herbicidal activity, ECHCG. To be noted: 1000 g/ha, sprayed post-emergence (8 days cultivation), evaluated after 13 days, damage score 0-5. As for the experimental part:
as §2

Assay [5] has as its system Lolium perenne (LOLPE). As to the kind of experiment: Post-emergence herbicidal activity, LOLPE. Particulars: 1000 g/ha, sprayed post-emergence (8 days cultivation), evaluated after 13 days, damage score 0-5. On the procedure: as §2
Assay [6] relates to Setaria faberi (SETFA). As to the kind of experiment: Pre-emergence herbicidal activity, SETFA. On the set-up: key: 5=total damage to plant; 0=no damage to plant. Particulars: 1000 g/ha, sprayed pre-emergence, evaluated after 13 days, damage score 0-5. As for the experimental part:
as §1

The test system of assay [7] is Alopecurus myosuroides (ALOMY). As to the kind of experiment: Pre-emergence herbicidal activity, ALOMY. Further details: key: 5=total damage to plant; 0=no damage to plant. To be noted: 1000 g/ha, sprayed pre-emergence, evaluated after 13 days, damage score 0-5. On the procedure:
as §1

In assay [8] the test system is Avena fatua (AVEFA). As to the kind of experiment: Pre-emergence herbicidal activity, AVEFA. Particulars: 1000 g/ha, sprayed pre-emergence, evaluated after 13 days, damage score 0-5. As for the experimental part: as §1
In assay [9] the test system is Lolium perenne (LOLPE). As to the kind of experiment: Pre-emergence herbicidal activity, LOLPE. On the set-up: key: 5=total damage to plant; 0=no damage to plant. Particulars: 1000 g/ha, sprayed pre-emergence, evaluated after 13 days, damage score 0-5. As for the experimental part: as §1
In assay [10] the test system is Triticum aestivium (TRZAW). As to the kind of experiment: Pre-emergence herbicidal activity, TRZAW. On the set-up: key: 5=total damage to plant; 0=no damage to plant. To be noted: 1000 g/ha, sprayed pre-emergence, evaluated after 13 days, damage score 0-5. As for the experimental part: as §1
Assay [11] relates to Triticum aestivium (TRZAW). In words: Post-emergence herbicidal activity, TRZAW. To be noted: 1000 g/ha, sprayed post-emergence (8 days cultivation), evaluated after 13 days, damage score 0-5. As for the experimental part: as §2
The test system of assay [12] is Avena fatua (AVEFA). As to the kind of experiment: Post-emergence herbicidal activity, AVEFA. To be noted: 1000 g/ha, sprayed post-emergence (8 days cultivation), evaluated after 13 days, damage score 0-5. As for the experimental part:
as §2

Regarding `CCC(=O)N(C(=O)CC)c1ncc(-c2cncnc2)nc1C(F)(F)F` [Compound I12], in assay [1], the “Control of weed species after pre-emergence application: ECHCG” value is reported as 2. The “Control of weed species after post-emergence application: ALOMY” value in assay [2] amounted to 1. The “Control of weed species after post-emergence application: SETFA” value in assay [3] worked out at 4. The “Control of weed species after post-emergence application: ECHCG” value in assay [4] is recorded as 3. In addition, the “Control of weed species after post-emergence application: LOLPE” value in [5] is recorded as 1. Moreover, the “Control of weed species after pre-emergence application: SETFA” value in assay [6] came to 3. Moreover, the “Control of weed species after pre-emergence application: ALOMY” value in assay [7] is 0. In addition, the “Control of weed species after pre-emergence application: AVEFA” value in assay [8] stood at 1. Besides, in assay [9], the “Control of weed species after pre-emergence application: LOLPE” value amounted to 0. Also, the “Control of weed species after pre-emergence application: TRAZW” value in assay [10] turned out to be 0. In assay [11], the “Control of weed species after post-emergence application: TRAZW” value is given as 1. In addition, the “Control of weed species after post-emergence application: AVEFA” value in assay [12] is reported as 2.
For the compound `CC(=O)N(C)c1ncc(-c2cncc(F)c2)nc1C` [Compound I6], in [1], the “Control of weed species after pre-emergence application: ECHCG” value amounted to 3. Also, the “Control of weed species after post-emergence application: ALOMY” value in assay [2] amounted to 1. For the same compound, the “Control of weed species after post-emergence application: SETFA” value in assay [3] was found to be 5. Also, in assay [4], the “Control of weed species after post-emergence application: ECHCG” value was determined as 4. The “Control of weed species after post-emergence application: LOLPE” value in [5] was 2. For the same compound, the “Control of weed species after pre-emergence application: SETFA” value in assay [6] came out at 5. Besides, in assay [7], the “Control of weed species after pre-emergence application: ALOMY” value was 0. For the same compound, in [8], the “Control of weed species after pre-emergence application: AVEFA” value is recorded as 1. For the same compound, the “Control of weed species after pre-emergence application: LOLPE” value in assay [9] came to 0. Also, in assay [10], the “Control of weed species after pre-emergence application: TRAZW” value is reported as 0. Also, in [11], the “Control of weed species after post-emergence application: TRAZW” value worked out at 1. Moreover, the “Control of weed species after post-emergence application: AVEFA” value in [12] came to 3.

These data come from patent US11678665B2, “Pyrazine-4-carbamate or -urea derivatives as herbicides” (Syngenta Participations AG, priority 2017, dated 2023).
